# From patent US6423317B1, “Method of killing protozoa” (S.S. Steiner, Inc., priority 2001, dated 2002)
# Key:
# P. caudatum [1] = experiment: Protozoicidal effect, time for 100% kill; type: cell-based, Paramecium caudatum; settings: for Time of death (100% kill): observation time 24 hours
# Experimental: (§1) […] protozoa had stopped moving. The observation time was 24 hours. In order to determine whether the protozoa had been killed rather than only temporarily inactivated, the organisms in hop solution were centrifuged, the supernatant removed, and the protozoa placed into fresh medium in which hop was not present. When there was no revival of the organisms, it was concluded that they were dead rather than only temporarily inactivated.
# Euglena sp. = experiment: Protozoicidal effect, time for 100% kill; type: cell-based; settings: observation time 24 hours
# Experimental: as §1
# T. pyriformis = experiment: Protozoicidal effect, time for 100% kill; type: cell-based, Tetrahymena pyriformis; settings: observation time 24 hours
# Experimental: as §1
# P. papillata = experiment: Protozoicidal effect, time for 100% kill; type: cell-based, Polytomella papillata; settings: observation time 24 hours
# Experimental: as §1
# Amoeba proteus = experiment: Protozoicidal effect, time for 100% kill; type: cell-based; settings: 500 μg/ml, observation time 24 hours
# Experimental: (§2) The protozoicidal effect of various hop compounds was determined by preparing different concentrations of hop solution in 10 ml. of medium. The solution was poured into 6×4 multiwell dishes—3424 Mark 2 (Coster, Cambridge, Mass.). An average of 10 microorganisms was added to each well and observed under the stereomicroscope. Results were expressed as the time in minutes for a 100% kill, which was presumed when all of the
# (§3) protozoa had stopped moving. The observation time was 24 hours.
# (§4) In order to determine whether the protozoa had been killed rather than only temporarily inactivated, the organisms in hop solution were centrifuged, the supernatant removed, and the protozoa placed into fresh medium in which hop was not present. When there was no revival of the organisms, it was concluded that they were dead rather than only temporarily inactivated.
# (§5) Tests were conducted to determine the effectiveness of the alpha and beta resins against amoebae.
# Chaos sp. [2] = experiment: Protozoicidal effect, time for 100% kill; type: cell-based; settings: for Time of death (100% kill): observation time 24 hours
# Experimental: as §2, §3, §4, §5
# P. caudatum [3] = experiment: Co-action of hop resins with carbon dioxide, time for 100% kill; type: cell-based, Paramecium caudatum; settings: carbon dioxide bubbled into the medium for 30 seconds before inoculation
# Experimental: (§6) Different concentrations of the alpha and beta resins of hop were prepared in 10 ml. of medium, as identified in Table 1, and poured into plastic tissue culture flasks of 25 cm. growth area with screw caps, obtained from Falcon, Oxnard, Calif. Carbon dioxide was then bubbled through the medium in the bottles at a rapid rate for a period of 30 seconds. An average of ten organisms were added to each flask and examined directly under the stereomicroscope. The times that were taken for a 100% kill of the organisms, that is, when all of the organisms ceased any motion, were recorded in minutes and are tabulated in Tables 7 and 8.
# Chaos sp. [4] = experiment: Co-action of hop resins with carbon dioxide; type: cell-based
# Experimental: as §6
# The same tests but at greater resin concentrations were carried out on an amoeba strain, Chaos sp., and the results recorded in Table 8.
# [5] = 0.2 μg/ml, listed as beta resin
# [6] = 0.5 μg/ml, listed as beta resin
smiles,measurement,setting,value
"CC(C)=CCC1=C(O)C(C(=O)CC(C)C)=C(O)C(CC=C(C)C)(CC=C(C)C)C1=O [Beta Resin, lupulone]",Time of death (100% kill),P. caudatum [1]; 0.05 μg/ml,not sensitive
same,Time for death to occur,P. caudatum [1]; 0.1 ug/ml,one
same,Time of death (100% kill),P. caudatum [1]; 0.1 μg/ml,60 min
same,Time of death (100% kill),P. caudatum [1]; 0.2 μg/ml,5 min
same,Time of death (100% kill),P. caudatum [1]; [5],≤ 5 min
same,Time of death (100% kill),P. caudatum [1]; 0.5 μg/ml,3.5 min
same,Time of death (100% kill),P. caudatum [1]; [6],five
same,Time of death (100% kill),P. caudatum [1]; 1.0 μg/ml,3.0 min
same,Time of death (100% kill),P. caudatum [1]; 2.0 μg/ml,2.0 min
same,Time of death (100% kill),Euglena sp.; 0.05 μg/ml,not sensitive
same,Time of death (100% kill),Euglena sp.; 0.5 μg/ml,2.5 min
same,Time of death (100% kill),Euglena sp.; 1.0 μg/ml,1.5 min
same,Time of death (100% kill),Euglena sp.; 2.0 μg/ml,1.2 min
same,Time of death (100% kill),T. pyriformis; 0.05 μg/ml,not sensitive
same,Time of death (100% kill),T. pyriformis; 0.2 μg/ml,15 min
same,Time of death (100% kill),T. pyriformis; [5],≤ 15 min
same,Time of death (100% kill),T. pyriformis; 0.5 μg/ml,3 min
same,Time of death (100% kill),T. pyriformis; [6],five
same,Time of death (100% kill),T. pyriformis; 1.0 μg/ml,1.5 min
same,Time of death (100% kill),T. pyriformis; 2.0 μg/ml,1.0 min
same,Time of death (100% kill),"T. pyriformis; 2.0 μg/ml, listed as beta resin",two
same,Time of death (100% kill),P. papillata; 0.05 μg/ml,not sensitive
same,Time of death (100% kill),P. papillata; 0.2 μg/ml,40 min
same,Time of death (100% kill),P. papillata; [5],≤ 40 min
same,Time of death (100% kill),P. papillata; 0.5 μg/ml,5 min
same,Time of death (100% kill),P. papillata; 1.0 μg/ml,3.5 min
same,Time of death (100% kill),P. papillata; 2.0 μg/ml,2.0 min
same,Time of death (100% kill),Amoeba proteus,180 min
same,Time of death (100% kill),Chaos sp. [2]; 10 μg/ml,neither the alpha nor beta resins were effective alone
same,Time of death (100% kill),Chaos sp. [2]; 50 μg/ml,60 min
same,Time of death (100% kill),"Chaos sp. [2]; 50 μg/ml, listed as beta resin",effective per se
same,Time of death (100% kill),Chaos sp. [2]; 100 μg/ml,30 min
same,Time of death (100% kill),"Chaos sp. [2]; 100 μg/ml, listed as beta resin",all were effective
same,Time of death (100% kill),Chaos sp. [2]; 200 μg/ml,30 min
same,Time of death (100% kill),Chaos sp. [2]; 500 μg/ml,25 min
same,"Time of death (100% kill), resin + CO2",P. caudatum [3]; resin 0.05 μg/ml,14 min
same,"Time of death (100% kill), resin + CO2",P. caudatum [3]; resin 0.1 μg/ml,5 min
same,Effectiveness in killing with prior carbon dioxide treatment,"Chaos sp. [4]; resin 10 ug/ml, prior carbon dioxide treatment",both were effective
same,Effectiveness in killing with prior carbon dioxide treatment,"Chaos sp. [4]; resin 50 ug/ml, carbon dioxide pretreatment",both were effective with carbon dioxide pretreatment
same,Effectiveness in killing with prior carbon dioxide treatment,"Chaos sp. [4]; resin 100 ug/ml, carbon dioxide pretreatment",all were most effective with pretreatment
"O=C=O [Carbon dioxide, carbon dioxide]","Time of death with carbon dioxide, without addition of hop",P. caudatum [3]; no hop,*Carbon dioxide had been bubbled into the medium for 30 seconds previous to inoculation and death without addition of hop occurred between 40-50 minutes.
"COc1cc(O)c(CC=C(C)C)c(O)c1C(=O)/C=C/c1ccc(O)cc1 [Xanthohumol, xanthohumol]",Time of death (100% kill),P. caudatum [1]; 0.05 μg/ml,10 min
same,Time of death (100% kill),"P. caudatum [1]; 0.05 μg/ml, listed as xanthohumol",ten
same,Time of death (100% kill),P. caudatum [1]; 0.1 μg/ml,5 min
same,Time of death (100% kill),P. caudatum [1]; 1.0 μg/ml,2.5 min
same,Concentration effective in killing,Chaos sp. [2],≥ 5 µg/mL
same,Time of death (100% kill),Chaos sp. [2]; 5.0 μg/ml,15 min
same,Time of death (100% kill),Chaos sp. [2]; 10 μg/ml,11 min
